Results reported in US20250058000A1, “Treatment of Proliferative Disorders Using Antibodies to PSMA” (Cornell University, priority 2007, published 2025).

Tests used:
[1] = system: LNCaP cells; experiment: Docetaxel inhibition of LNCaP cell growth at different folate concentrations (cell count); format: cell-based, human; settings: 10 or 20 μg/ml docetaxel for 72 hours, cells counted after 1 week; FIG. 12
Procedure: Docetaxel (taxotere) at concentrations of 10 or 20 μg/ml was incubated with LNCaP cells for 72 hours and at different concentrations of folate supplied in the form of folic acid from culture medium. Cells were counted after 1 week. […] The open bar is the control without treatment with docetaxel, the speckled bars are cells treated with 10 ug/ml docetaxel together with the indicated concentration of folate, and the striped bars are cells treated with 20 ug/ml docetaxel together with the indicated concentration of folate. The indicated concentrations of folate are over and above the physiological level of folate provided by the folate present in fetal calf serum (for example, 12 nm folate represents 12 nm folate above the physiological concentration). […] It is likely that decreased folate availability to cancer cells would enhance the anti-tumor effect of other cytotoxic, cytostatic and hormonal.

[2] = system: prostate cancer; settings: patients after developing androgen-independence; taxane-based chemotherapy; cited from earlier work
[3] = system: LNCaP cells; experiment: Effect of folic acid concentration on cell growth rate; format: cell-based, human; settings: folate level increased above physiological; FIG. 3
Excerpt: Increasing the folate level above physiological can increase the growth rate by almost 2-fold. In cell lines that express PSMA (such as LNCaP), the same growth increase is also found if folate is provided in the form of ‘natural’ or dietary folate (e.g., polyglutamated folate) which is digested to monoglutamated folate by PSMA. The latter (monoglutamated folate) can cross the cell membrane whereas polyglutamated folate cannot. Anti-PSMA Antibody, J415, Inhibits PSMA tic Activity.

[4] = system: PSMA expression, Cwr22rv1; experiment: PSMA expression (J591 labeling, FACS) after three weeks in lowered-folate media; format: cell-based, human; settings: folate lowered to 10 nM, vs standard media, FIG. 9
Procedure: (§1) According to the World Health Organization, physiological level of serum folate is 12 nmol/L. Standard tissue culture media contains approx 150× the concentration of folate found in human serum/plasma. […] FIGS. 5-11 show the PSMA expression levels of different cell lines were grown for three weeks in standard media (containing 150× physiological concentration of folate; lines 2), standard media with only 50 nM folate, or standard media with only 10 nM folate. The cells were labeled with anti-PSMA antibody J591 followed by a fluorescently labeled secondary antibody that recognizes J591. Lines 1 show the cells labeled with a negative isotype control antibody followed by the labeled secondary antibody.

[5] = system: PSMA expression, LNCaP; experiment: as above; format: cell-based, human; settings: folate lowered in the media, FIG. 11
Procedure: as §1

[6] = system: PSMA expression, PC3; experiment: as above; format: cell-based, human; settings: folate lowered to 50 nM or less, vs standard media, FIG. 10
Procedure: as §1

[7] = system: PSMA expression, SK-RC-06; experiment: as above; format: cell-based, human; settings: folate lowered to 50 nM or less, vs standard media, FIG. 8
Procedure: as §1

[8] = system: PSMA expression, SK-RC-31; experiment: as above; format: cell-based, human; settings: folate lowered to 10 nM, vs standard media, FIG. 5
Procedure: as §1

[9] = system: PSMA expression, SK-RC-39; experiment: as above; format: cell-based, human; settings: folate lowered to 10 nM, vs standard media, FIG. 7
Procedure: as §1

[10] = system: PSMA expression, SK-RC-42; experiment: as above; format: cell-based, human; settings: folate lowered to 10-50 nM, vs standard media, FIG. 6
Procedure: as §1

Compound: CC(=O)O[C@@]12CO[C@@H]1C[C@H](O)[C@@]1(C)C(=O)[C@H](O)C3=C(C)[C@@H](OC(=O)[C@H](O)[C@@H](NC(=O)OC(C)(C)C)c4ccccc4)C[C@@](O)([C@@H](OC(=O)c4ccccc4)[C@H]21)C3(C)C [docetaxel]
- Cell killing/inhibition of growth depending on folate level (in words) [1]: decreasing folate levels increases the cell killing/inhibition of growth
- Median survival [2]: 19 months

Compound: Nc1nc2ncc(CNc3ccc(C(=O)N[C@@H](CCC(=O)O)C(=O)O)cc3)nc2c(=O)[nH]1 [folate, folic acid]
- Increase of growth rate [3]: ~2 fold
- Increase in PSMA expression [4]: 950%
- Upregulation of PSMA expression (in words) [5]: did not cause upregulation of PSMA expression
- Increase in PSMA expression [6]: 400%
- Increase in PSMA expression [7]: 225%
- Increase in PSMA expression [8]: 250%
- Increase in PSMA expression [9]: 250%
- Increase in PSMA expression [10]: 650%
